Data as given in article PMC7559897, “Designed Antimicrobial Peptides Against Trauma-Related Cutaneous Invasive Fungal Wound Infections” (Journal of Fungi, 2020).
Values after ≈ are worked out from the molar mass of the structure shown. Bridge positions count the residues as written; N and C are the ends. Peptide text beside a SMILES is read from it.

Assays:
[1] = test system: vulvovaginal candidiasis infection; settings: cited from earlier work
From the text: The dAMPs RP504, RP554 and RP557 were thus tested for their ability to treat a rodent vulvovaginal candidiasis infection. […] A daily dose with a 2% concentration lowered the CFU/sample by more than 4 logs compared to the con ...

[2] = test system: A. baumannii 6838; format: cell-based, Acinetobacter baumannii; settings: cation adjusted Mueller-Hinton broth, ~10^6 CFU/mL, 24 h, 37 °C, OD600 <0.1 in at least 3 of 4 wells, 2-128 μg/mL; shaded values previously reported ref 18
In short: (§1)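 Twofold broth microdilution of dAMPs (0–128 μg/mL) in quadruplicate; bacteria in 2X cation-adjusted Mueller–Hinton broth at ~10^6 CFU/mL, fungus in potato dextrose broth. Plates kept 24 h at 37 °C; MIC taken from OD600 <0.1 in ≥3 of 4 wells.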

[3] = test system: A. baumannii 6043; format: cell-based, Acinetobacter baumannii; settings: cation adjusted Mueller-Hinton broth, ~10^6 CFU/mL, 24 h, 37 °C, OD600 <0.1 in at least 3 of 4 wells, 2-128 μg/mL; shaded values previously reported ref 18
In short: as §1

[4] = test system: A. baumannii ATCC 17978; format: cell-based, Acinetobacter baumannii; settings: cation adjusted Mueller-Hinton broth, ~10^6 CFU/mL, 24 h, 37 °C, OD600 <0.1 in at least 3 of 4 wells, 2-128 μg/mL; shaded values previously reported ref 18
In short: as §1

[5] = test system: preformed and mature MRSA biofilm; settings: cited from earlier work
From the text: (§2) Early and empiric treatment is required due to the rapid emergence of both bacterial and fungal resistance and resilience due to biofilm formation multi-drug resistant organisms and their associated biofilms play a significant role in the pathogenicity and chronicity of wound infections. The resistance of bacteria and fungi residing in biofilms is due to the biofilm matrix acting as a fortified barrier and the presence of slow-growing microbes with poor metabolic activity, known as persisters. The dAMPs direct perturbation of cellular membranes is effective at eradicating biofilms. RP55 ...

[6] = test system: Candida biofilm; settings: cited from earlier work
From the text: as §2

[7] = test system: P. aeruginosa 19660 (Xen5 luciferase); assay: Bioluminescent time-kill assay; format: cell-based, Pseudomonas aeruginosa; settings: 8 μg/mL; RP553 at 60 min; bioluminescence
In short: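 Luciferase-expressing bacteria exposed to 2-fold serial dilutions of peptide in growth medium with 150 μg/mL D-luciferin, triplicate. Bioluminescence imaged at select times versus concurrent vehicle control as a real-time viability read-out.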

[8] = test system: E. cloacae 6054; format: cell-based; settings: cation adjusted Mueller-Hinton broth, ~10^6 CFU/mL, 24 h, 37 °C, OD600 <0.1 in at least 3 of 4 wells, 2-128 μg/mL; shaded values previously reported ref 18
In short: as §1

[9] = test system: Candida parapsilosis Y-1761; format: cell-based; settings: potato dextrose broth, 24 h, 37 °C, OD600 <0.1 in at least 3 of 4 wells, dose range 2 to 128 µg/mL; shaded values previously reported ref 17
In short: as §1

[10] = test system: Candida krusei Y-27803; format: cell-based; settings: potato dextrose broth, 24 h, 37 °C, OD600 <0.1 in at least 3 of 4 wells, dose range 2 to 128 µg/mL; shaded values previously reported ref 17
In short: as §1

[11] = test system: E. cloacae 6053; format: cell-based; settings: cation adjusted Mueller-Hinton broth, ~10^6 CFU/mL, 24 h, 37 °C, OD600 <0.1 in at least 3 of 4 wells, 2-128 μg/mL; shaded values previously reported ref 18
In short: as §1

[12] = test system: Mucor circinelloides NRRL 3631; format: cell-based; settings: potato dextrose broth, 24 h, 37 °C, OD600 <0.1 in at least 3 of 4 wells, dose range 2 to 128 µg/mL; shaded values previously reported ref 17
In short: as §1

[13] = test system: Absidia corymbifera NRRL 6251; format: cell-based; settings: potato dextrose broth, 24 h, 37 °C, OD600 <0.1 in at least 3 of 4 wells, dose range 2 to 128 µg/mL; shaded values previously reported ref 17
In short: as §1

[14] = test system: Candida albicans Y-326; format: cell-based; settings: potato dextrose broth, 24 h, 37 °C, OD600 <0.1 in at least 3 of 4 wells, dose range 2 to 128 µg/mL; shaded values previously reported ref 17
In short: as §1

[15] = test system: Aspergillus flavus MYA-1004; format: cell-based; settings: potato dextrose broth, 24 h, 37 °C, OD600 <0.1 in at least 3 of 4 wells, dose range 2 to 128 µg/mL; shaded values previously reported ref 17
In short: as §1

[16] = test system: Aspergillus fumigatus 9648; format: cell-based; settings: potato dextrose broth, 24 h, 37 °C, OD600 <0.1 in at least 3 of 4 wells, dose range 2 to 128 µg/mL; shaded values previously reported ref 17
In short: as §1

[17] = test system: S. epidermis ATCC 51625; format: cell-based; settings: cation adjusted Mueller-Hinton broth, ~10^6 CFU/mL, 24 h, 37 °C, OD600 <0.1 in at least 3 of 4 wells, 2-128 μg/mL; shaded values previously reported ref 18
In short: as §1

[18] = test system: Fusarium solani NRRL 28548; format: cell-based; settings: potato dextrose broth, 24 h, 37 °C, OD600 <0.1 in at least 3 of 4 wells, dose range 2 to 128 µg/mL; shaded values previously reported ref 17
In short: as §1

[19] = test system: Aspergillus flavus MYA-3651; format: cell-based; settings: potato dextrose broth, 24 h, 37 °C, OD600 <0.1 in at least 3 of 4 wells, dose range 2 to 128 µg/mL; shaded values previously reported ref 17
In short: as §1

[20] = test system: Candida parapsilosis Y-1763; format: cell-based; settings: potato dextrose broth, 24 h, 37 °C, OD600 <0.1 in at least 3 of 4 wells, dose range 2 to 128 µg/mL; shaded values previously reported ref 17
In short: as §1

[21] = test system: Candida albicans Y-6359; format: cell-based; settings: potato dextrose broth, 24 h, 37 °C, OD600 <0.1 in at least 3 of 4 wells, dose range 2 to 128 µg/mL; shaded values previously reported ref 17
In short: as §1

[22] = test system: Aspergillus fumigatus 9651; format: cell-based; settings: potato dextrose broth, 24 h, 37 °C, OD600 <0.1 in at least 3 of 4 wells, dose range 2 to 128 µg/mL; shaded values previously reported ref 17
In short: as §1

[23] = test system: Candida krusei Y-27825; format: cell-based; settings: potato dextrose broth, 24 h, 37 °C, OD600 <0.1 in at least 3 of 4 wells, dose range 2 to 128 µg/mL; shaded values previously reported ref 17
In short: as §1

Compound: CC[C@H](C)[C@@H]1NC(=O)CNC(=O)[C@H](CCCCN)NC(=O)[C@H](Cc2ccc(O)cc2)NC(=O)[C@@H]2CSSC[C@H](NC1=O)C(=O)N[C@@H](Cc1ccccc1)C(=O)N[C@@H](CCCCN)C(=O)N[C@@H](CCCCN)C(=O)N[C@H](C(=O)N[C@@H](CCCCN)C(N)=O)CSSC[C@H](NC(=O)[C@H](Cc1ccccc1)NC(=O)[C@@H](N)CCCNC(=N)N)C(=O)N[C@@H](Cc1c[nH]c3ccccc13)C(=O)N[C@@H](CCCCN)C(=O)N[C@@H](C(C)C)C(=O)N2 [RP557] (H-RFCWKVCYKGICFKKCK-NH2; disulfide 3-16, 7-12)
- lowering of CFU/sample compared to control samples ([1]; daily dose with a 2% concentration, dose-response protocol): more than 4 logs
- reduction of CFU/tissue sample ([1]; rodent vulvovaginal candidiasis, after three days of daily treatment): ≥ 2.5 logs
- MIC against A. baumannii 6838 [2]: 8 µg/mL (≈ 3.75 µM)
- MIC against A. baumannii 6043 [3]: 8 µg/mL (≈ 3.75 µM)
- MIC against A. baumannii ATCC 17978 [4]: 16 µg/mL (≈ 7.49 µM)
- disruption of preformed and mature MRSA biofilm [5]: completely disrupted
- disruption of Candida biofilm [6]: completely disrupted
- P. aeruginosa killing (in words) [7]: immediate eradication
- MIC against E. cloacae 6054 [8]: 8 µg/mL (≈ 3.75 µM)
- MIC against Candida parapsilosis Y-1761 [9]: 16 µg/mL (≈ 7.49 µM)
- MIC against Candida krusei Y-27803 [10]: 16 µg/mL (≈ 7.49 µM)
- MIC against E. cloacae 6053 [11]: 8 µg/mL (≈ 3.75 µM)
- MIC against Mucor circinelloides NRRL 3631 [12]: 64 µg/mL (≈ 30 µM)
- MIC against Absidia corymbifera NRRL 6251 [13]: 2 µg/mL (≈ 0.936 µM)
- MIC against Candida albicans Y-326 [14]: 16 µg/mL (≈ 7.49 µM)
- MIC against Aspergillus flavus MYA-1004 [15]: 64 µg/mL (≈ 30 µM)
- MIC against Aspergillus fumigatus 9648 [16]: 64 µg/mL (≈ 30 µM)
- MIC against S. epidermis ATCC 51625 [17]: 8 µg/mL (≈ 3.75 µM)
- MIC against Fusarium solani NRRL 28548 [18]: 2 µg/mL (≈ 0.936 µM)
- MIC against Aspergillus flavus MYA-3651 [19]: 64 µg/mL (≈ 30 µM)
- MIC against Candida parapsilosis Y-1763 [20]: 2 µg/mL (≈ 0.936 µM)
- MIC against Candida albicans Y-6359 [21]: 4 µg/mL (≈ 1.87 µM)
- MIC against Aspergillus fumigatus 9651 [22]: 64 µg/mL (≈ 30 µM)
- MIC against Candida krusei Y-27825 [23]: 16 µg/mL (≈ 7.49 µM)
